According to US11780845B2 (Relay Therapeutics, Inc., priority 2019, dated 2023):

Columns and labels:
FGFR2 = FGFR2 (Homo sapiens (Human), UniProt P21802); assay: FGFR2 Biochemical Caliper Assay
Description: Compounds of the present invention were also tested in a FGFR2 Biochemical Caliper Assay. Compounds were prepared in 10 mM DMSO solution and serially diluted into 11 concentrations by 3-fold dilution. […] 5 uL of ATP solution (100 uM) was added to start the reaction and the plate was incubated for 90 minutes, then 70 uL of stopping buffer (0.5M EDTA) was added to terminate the reaction. Each well was analyzed using EZ reader.

SNU16 cells = assay: SNU16 Cancer Cell Line Proliferation Assay; assay type: cell-based; details: Homo sapiens; SNU-16 cells
In short: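 SNU16 cells were seeded, held 24 h at 37 degrees, then dosed with an 11-point 3-fold dilution series prepared from a 10 mM DMSO stock. After 96 h incubation, viability was read by CellTiter Glo luminescence.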

Chain of FGFR2 (P21802 22-821): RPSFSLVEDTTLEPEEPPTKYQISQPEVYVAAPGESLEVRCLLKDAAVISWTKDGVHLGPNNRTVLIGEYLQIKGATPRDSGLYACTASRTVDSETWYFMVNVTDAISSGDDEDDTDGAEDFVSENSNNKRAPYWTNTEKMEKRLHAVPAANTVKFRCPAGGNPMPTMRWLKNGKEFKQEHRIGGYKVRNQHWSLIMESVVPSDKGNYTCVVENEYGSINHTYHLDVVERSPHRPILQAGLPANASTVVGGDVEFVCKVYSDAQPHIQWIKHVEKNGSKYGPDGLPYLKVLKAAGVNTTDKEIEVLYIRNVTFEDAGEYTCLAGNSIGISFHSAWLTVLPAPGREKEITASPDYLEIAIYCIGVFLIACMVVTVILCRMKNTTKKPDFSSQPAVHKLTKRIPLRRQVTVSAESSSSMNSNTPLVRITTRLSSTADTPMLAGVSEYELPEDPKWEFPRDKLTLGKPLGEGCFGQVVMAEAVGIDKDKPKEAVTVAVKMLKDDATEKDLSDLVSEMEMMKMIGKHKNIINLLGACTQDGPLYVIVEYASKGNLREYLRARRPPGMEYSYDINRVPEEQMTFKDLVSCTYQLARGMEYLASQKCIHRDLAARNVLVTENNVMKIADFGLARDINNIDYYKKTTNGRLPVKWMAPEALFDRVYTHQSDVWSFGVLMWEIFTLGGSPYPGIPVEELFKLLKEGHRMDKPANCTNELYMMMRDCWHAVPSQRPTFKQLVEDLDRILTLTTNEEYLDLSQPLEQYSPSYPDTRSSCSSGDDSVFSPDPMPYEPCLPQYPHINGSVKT

Structure (SMILES) | IC50 (FGFR2) | IC50 (SNU16 cells)
C=C(C)C(=O)Nc1ccc(-c2c(C3=CCC(C(=O)N4CC5CCC(C5)C4)CC3)c3c(N)ncnc3n2C)cc1 (stereo not shown) [Example 387] | 100 to 250 nM | ≤ 100 nM
C=C(C)C(=O)Nc1ccc(-c2c(-c3ccc(C(=O)N4CCC[C@@H](OC)C4)cc3)c3c(N)ncnc3n2C)cc1 [Example 388] | 250 to 1000 nM | 100 to 250 nM
C=C(C)C(=O)Nc1ccc(-c2c(-c3ccc(C(=O)NCC4CCC4)c(OC)c3)c3c(N)ncnc3n2C)cc1 [Example 391] | < 100 nM | ≤ 100 nM
C=C(C)C(=O)Nc1ccc(-c2c(-c3ccc(Oc4nnc(C)o4)cc3)c3c(N)ncnc3n2C)cc1 [Example 393] | 1000 to 100000 nM | 250 to 1000 nM
C=C(C)C(=O)Nc1ccc(-c2c(-c3ccc(Oc4cccc(C)n4)c(F)c3)c3c(N)ncnc3n2C)cc1 [Example 395] | < 100 nM | ≤ 100 nM
C=C(C)C(=O)Nc1ccc(-c2c(-c3ccc(C(=O)NCC4CCC4)nc3)c3c(N)ncnc3n2C)cc1 [Example 399] | 100 to 250 nM | ≤ 100 nM
C=C(COC)C(=O)Nc1ccc(-c2c(-c3ccc(Oc4cccc(C)n4)cc3)c3c(N)ncnc3n2C)cc1 [Example 401] | < 100 nM | ≤ 100 nM
C=C(C)C(=O)Nc1ccc(-c2c(-c3ccc(C(=O)N4CCCC4)cc3)c3c(N)ncnc3n2C)c(C)c1 [Example 406] | < 100 nM | ≤ 100 nM
C=C(C)C(=O)Nc1ccc(-c2c(-c3ccc(C(=O)NCC(C)(C)F)cc3)c3c(N)ncnc3n2C)cc1 [Example 408] | < 100 nM | ≤ 100 nM
C=C(C)C(=O)Nc1ccc(-c2c(-c3ccc(C(=O)NCC(C)(C)COC)cc3)c3c(N)ncnc3n2C)cc1 [Example 409] | < 100 nM | ≤ 100 nM
C=C(C)C(=O)Nc1ccc(-c2c(-c3ccc(C(=O)N(C)CC(C)C)cc3)c3c(N)ncnc3n2C)cc1 [Example 410] | < 100 nM | ≤ 100 nM
C=C(C)C(=O)Nc1ccc(-c2c(-c3ccc(C(=O)N(C)CC4(F)COC4)cc3)c3c(N)ncnc3n2C)cc1 [Example 411] | 250 to 1000 nM | 250 to 1000 nM
C=C(C)C(=O)Nc1ccc(-c2c(-c3ccc(C(=O)NCC4CCC4)c(F)c3)c3c(N)ncnc3n2C)cc1 [Example 413] | < 100 nM | ≤ 100 nM
C=C(C)C(=O)Nc1ccc(-c2c(-c3ccc(Oc4cccc(C)n4)cc3)c3c(N)ncnc3n2C2COC2)cc1 [Example 415] | < 100 nM | ≤ 100 nM
C=C(C)C(=O)Nc1ccc(-c2c(-c3ccc(C(=O)NCC(C)(C)OC)c(F)c3)c3c(N)ncnc3n2C)cc1 [Example 416] | < 100 nM | ≤ 100 nM
C=C(C)C(=O)Nc1ccc(-c2c(-c3ccc(Oc4cccc(COC)n4)cc3)c3c(N)ncnc3n2C)cc1 [Example 417] | < 100 nM | ≤ 100 nM
C=C(C)C(=O)Nc1ccc(-c2c(-c3ccc(Oc4cccc(CO)n4)cc3)c3c(N)ncnc3n2C)cc1 [Example 418] | < 100 nM | ≤ 100 nM
C=C(C)C(=O)Nc1ccc(-c2c(C3=CC[C@@H](C(=O)N4CC5CCC(C5)C4)CC3)c3c(N)ncnc3n2C)cc1 [Example 419] | < 100 nM | ≤ 100 nM
C=C(C)C(=O)Nc1ccc(-c2c(-c3cc(F)c(Oc4ncc(C)cn4)c(F)c3)c3c(N)ncnc3n2C)cc1 [Example 423] | < 100 nM | 100 to 250 nM

Structure (SMILES) | IC50 (FGFR2) | IC50 (SNU16 cells)
C=C(C)C(=O)Nc1ccc(-c2c(-c3ccc(Oc4ncc(F)cn4)c(C)c3)c3c(N)ncnc3n2C)c(F)c1 [Example 424] | < 100 nM | ≤ 100 nM
C=C(C)C(=O)Nc1ccc(-c2c(-c3ccc(Oc4nccc(C)n4)cc3F)c3c(N)ncnc3n2C)cc1 [Example 425] | < 100 nM | ≤ 100 nM
C=C(C)C(=O)Nc1ccc(-c2c(-c3ccc(Oc4nccc(C)n4)cc3)c3c(N)ncnc3n2C)c(F)c1 [Example 426] | < 100 nM | ≤ 100 nM
C=C(C)C(=O)Nc1ccc(-c2c(-c3ccc(Oc4ncc(F)cn4)cc3)c3c(N)ncnc3n2C)c(F)c1 [Example 427] | < 100 nM | ≤ 100 nM
C=C(C)C(=O)Nc1ccc(-c2c(-c3ccc(Oc4ncc(F)cn4)cc3)c3c(N)ncnc3n2C)cc1 [Example 428] | < 100 nM | ≤ 100 nM
C=C(C)C(=O)Nc1ccc(-c2c(-c3ccc(Oc4ncc(F)cn4)c(C#N)c3)c3c(N)ncnc3n2C)cc1 [Example 429] | 100 to 250 nM | 100 to 250 nM
C=C(C)C(=O)Nc1ccc(-c2c(-c3ccc(C(=O)N4CCCC4)cc3)c3c(N)ncnc3n2C)c(OC)c1 [Example 433] | < 100 nM | ≤ 100 nM
C=C(C)C(=O)Nc1ccc(-c2c(-c3ccc(C(=O)N4CCCC4)cc3)c3c(N)ncnc3n2C)c(Cl)c1 [Example 434] | < 100 nM | ≤ 100 nM
C=C(C)C(=O)Nc1ccc(-c2c(-c3ccc(C(=O)N4CCCC4)cc3)c3c(N)ncnc3n2C)c(C#N)c1 [Example 435] | < 100 nM | 100 to 250 nM
C=C(C)C(=O)Nc1ccc(-c2c(-c3ccc(C(=O)N4CCCC4)cc3)c3c(N)ncnc3n2C)c(C(F)F)c1 [Example 436] | < 100 nM | 100 to 250 nM
C=C(C)C(=O)Nc1ccc(-c2c(-c3ccc(C(=O)N4CCC[C@H]4C#N)c(F)c3)c3c(N)ncnc3n2C)cc1 [Example 437] | < 100 nM | ≤ 100 nM
C=C(C)C(=O)Nc1ccc(-c2c(-c3ccc(Oc4cccc(C)n4)nc3)c3c(N)ncnc3n2C)cc1 [Example 441] | 250 to 1000 nM | 250 to 1000 nM
C=C(C)C(=O)Nc1ccc(-c2c(-c3ccc(Oc4cccc(C)n4)cc3F)c3c(N)ncnc3n2C)cc1 [Example 442] | < 100 nM | ≤ 100 nM
C=C(C)C(=O)Nc1ccc(-c2c(-c3ccc(Oc4nccc(C)n4)c(OC)c3)c3c(N)ncnc3n2C)c(F)c1 [Example 444] | < 100 nM | ≤ 100 nM
C=C(C)C(=O)Nc1ccc(-c2c(-c3ccc(Oc4cccc(C)n4)c(C#N)c3)c3c(N)ncnc3n2C)cc1 [Example 445] | < 100 nM | ≤ 100 nM
C=C(C)C(=O)Nc1ccc(-c2c(-c3ccc(Oc4nccc(C)n4)c(OC)c3)c3c(N)ncnc3n2C)cc1 [Example 446] | 100 to 250 nM | ≤ 100 nM
C=C(C)C(=O)Nc1ccc(-c2c(-c3cc(F)c(Oc4nccc(C)n4)c(F)c3)c3c(N)ncnc3n2C)cc1 [Example 447] | < 100 nM | ≤ 100 nM
C=C(C)C(=O)Nc1ccc(-c2c(-c3ccc(Oc4ncc(F)cn4)c(OC)c3)c3c(N)ncnc3n2C)cc1 [Example 448] | 250 to 1000 nM | 100 to 250 nM
C=C(C)C(=O)Nc1ccc(-c2c(-c3ccc(Oc4ncc(OC)cn4)c(F)c3)c3c(N)ncnc3n2C)cc1 [Example 449] | 250 to 1000 nM | 100 to 250 nM

Structure (SMILES) | IC50 (FGFR2) | IC50 (SNU16 cells)
C=C(C)C(=O)Nc1ccc(-c2c(C3=CCC(Oc4ncc(F)cn4)CC3)c3c(N)ncnc3n2C)cc1 (stereo not shown) [Example 458] | 100 to 250 nM | ≤ 100 nM
C=C(C)C(=O)Nc1ccc(-c2c(-c3ccc(C(=O)N4CCC[C@H]4C#N)cc3)c3c(N)ncnc3n2C)c(F)c1 [Example 459] | < 100 nM | ≤ 100 nM
C=C(C)C(=O)Nc1ccc(-c2c(-c3ccc(Oc4cccc(C)n4)cn3)c3c(N)ncnc3n2C)cc1 [Example 460] | < 100 nM | ≤ 100 nM
C=C(C)C(=O)Nc1ccc(-c2c(-c3ccc(C(=O)N4CCC5CC54)cc3)c3c(N)ncnc3n2C)c(F)c1 (stereo not shown) [Example 461] | < 100 nM | ≤ 100 nM
C=C(C)C(=O)Nc1ccc(-c2c(-c3ccc(C(=O)N4CCCC[C@H]4C)cc3)c3c(N)ncnc3n2C)c(F)c1 [Example 462] | < 100 nM | ≤ 100 nM
C=C(C)C(=O)Nc1ccc(-c2c(-c3ccc(C(=O)N4CC5CC4C5)cc3)c3c(N)ncnc3n2C)c(F)c1 [Example 463] | < 100 nM | ≤ 100 nM
C=C(C)C(=O)Nc1ccc(-c2c(-c3ccc(C(=O)N(C)CC4(C#N)CC4)cc3)c3c(N)ncnc3n2C)c(F)c1 [Example 465] | < 100 nM | ≤ 100 nM
C=C(C)C(=O)Nc1ccc(-c2c(-c3ccc(C(=O)N(C)Cc4nc(C)no4)cc3)c3c(N)ncnc3n2C)c(F)c1 [Example 468] | < 100 nM | ≤ 100 nM
C=C(C)C(=O)Nc1ccc(-c2c(-c3ccc(C(=O)c4nccc(C)n4)cc3C)c3c(N)ncnc3n2C)cc1 [Example 471] | 100 to 250 nM | 100 to 250 nM
C=C(C)C(=O)Nc1ccc(-c2c(-c3ccc(Oc4ncc(F)cn4)cn3)c3c(N)ncnc3n2C)cc1 [Example 474] | < 100 nM | ≤ 100 nM
C=C(C)C(=O)Nc1ccc(-c2c(-c3ccc(Oc4cccc(C)n4)c(CN(C)C)c3)c3c(N)ncnc3n2C)cc1 [Example 475] | 1000 to 100000 nM | 250 to 1000 nM
Cc1cccc(Oc2ccc(-c3c(-c4ccc(NC#N)cc4)n(C)c4ncnc(N)c34)cc2)n1 [Example 476] | < 100 nM | ≤ 100 nM
C=C(C)C(=O)Nc1ccc(-c2c(-c3ccc(Oc4nccc(C)n4)c(C)c3)c3c(N)ncnc3n2C)c(F)c1 [Example 479] | < 100 nM | ≤ 100 nM
C=C(C)C(=O)Nc1ccc(-c2c(-c3ccc(Oc4nccc(C)n4)c(F)c3)c3c(N)ncnc3n2C)c(F)c1 [Example 482] | < 100 nM | ≤ 100 nM
C=C(C)C(=O)Nc1ccc(-c2c(-c3ccc(Oc4nccc(C)n4)c(C)c3)c3c(N)ncnc3n2C)cc1 [Example 484] | < 100 nM | ≤ 100 nM
C=C(CN(C)C)C(=O)Nc1ccc(-c2c(-c3ccc(Oc4cccc(C)n4)cc3)c3c(N)ncnc3n2C)cc1 [Example 485] | < 100 nM | ≤ 100 nM
C=C(C)C(=O)Nc1ccc(-c2c(-c3ccc(C(=O)N4CC5CC5C4)cc3)c3c(N)ncnc3n2C)c(F)c1 (stereo not shown) [Example 487] | < 100 nM | ≤ 100 nM
C=C(C)C(=O)Nc1ccc(-c2c(-c3ccc(Oc4nccc(C)n4)c(F)c3)c3c(N)ncnc3n2CCO)cc1 [Example 490] | < 100 nM | ≤ 100 nM
